Measurements: patent publication US11464770B2, “Anticancer pharmaceutical composition” (NATIONAL CANCER CENTER, priority 2016, dated 2022)
Where two headings read alike, the source gives them in different places.

Tests used:
[1] = test system: renal cancer cell lines; experiment: Cell based assay, cell viability (CellTiter-Glo), renal cancer cell lines; conditions: Homo sapiens; ACHN cells
Method: (§1) Commercially available bladder cancer, prostate cancer, lung cancer, breast cancer, blood cancer, pancreatic cancer, colorectal cancer, brain cancer, neuroblastoma, melanoma, liver cancer, cervical carcinoma, ovarian cancer, renal cancer, and papilloma cell lines were each treated with trypsin-EDTA and cultured, followed by being seeded in each well of a 96 well plate. After 24 hours of treatment at constant temperature, the respective cells were treated with the candidate compound so that a final concentration became 0 to 2 μM. The treated cells were additionally cultured for 72 hours, and cell viability was measured by using an ATP detection method (CellTiter-Glo® Luminescent Cell Viability Assay, Promega).

[2] = test system: melanoma cell lines; experiment: Cell based assay, cell viability (CellTiter-Glo), melanoma cell lines; conditions: Homo sapiens; LOX-IMVI cell line
Method: as §1

[3] = test system: breast cancer cell lines (e.g. MDA-MB-231, SK-BR-3, MDA-MB-468, HCC1954); experiment: Cell based assay, cell viability (CellTiter-Glo), breast cancer cell lines; conditions: 72 hours, CellTiter-Glo
Method: as §1

[4] = Breast cancer cell line MDA-MB-231-L/DOX, read-out: IC50, MDA-MB-231-L/DOX
[5] = Homo sapiens, Breast cancer cell line BT-20, read-out: IC50, BT-20
[6] = Homo sapiens, Breast cancer cell line HCC1395, read-out: IC50, HCC1395
[7] = Homo sapiens, Breast cancer cell line HCC1954, read-out: IC50, HCC1954
[8] = Homo sapiens, Breast cancer cell line JIMT-1, read-out: IC50, JIMT-1
[9] = Homo sapiens, Breast cancer cell line MCF7, read-out: IC50, MCF7
[10] = Homo sapiens, Breast cancer cell line MDA-MB-231, read-out: IC50, MDA-MB-231
[11] = Homo sapiens, Breast cancer cell line MDA-MB-468, read-out: IC50, MDA-MB-468
[12] = Homo sapiens, Breast cancer cell line SK-BR-3, read-out: IC50, SK-BR-3

Row | IC50 [1] | IC50 [2] | IC50 [3, 4] | IC50 [3, 5] | IC50 [3, 6] | IC50 [3, 7] | IC50 [3, 8] | IC50 [3, 9] | IC50 [3, 10] | IC50 [3, 11] | IC50 [3, 12] | Structure (SMILES)
1 | > 2 µM | > 2 µM | > 2 µM | > 2 µM | > 10 µM | > 2 µM | > 10 µM | > 2 µM | > 2 µM | > 2 µM | > 2 µM | CC(=O)c1c(SCc2ccccc2)n(C(=O)c2ccc(Br)cc2)c2c(Br)ccc(Cl)c2c1=O [Compound 23, 3-acetyl-2-(benzylthio)-8-bromo-1-(4-bromobenzoyl)-5-chloroquinolin-4(1H)-one]
2 | > 2 µM | > 2 µM | > 2 µM | > 2 µM | > 10 µM | > 2 µM | > 10 µM | > 2 µM | > 2 µM | > 2 µM | > 2 µM | CC(=O)c1c(SC(C)C)[nH]c2c(Br)ccc(Cl)c2c1=O [Compound 24, 3-acetyl-8-bromo-5-chloro-2-(isopropylthio)quinolin-4(1H)-one]
3 | > 2 µM | > 2 µM | > 2 µM | > 2 µM | > 10 µM | > 2 µM | > 10 µM | > 2 µM | > 2 µM | > 2 µM | 1.72 µM | CC(=O)c1c([S+]([O-])C(C)C)[nH]c2c(Br)ccc(Cl)c2c1=O (centres unmarked) [Compound 25, 3-acetyl-8-bromo-5-chloro-2-(isopropylsulfinyl)quinolin-4(1H)-one]
4 | > 2 µM | > 2 µM | > 2 µM | > 2 µM | > 10 µM | > 2 µM | > 10 µM | > 2 µM | > 2 µM | > 2 µM | > 2 µM | CC(=O)c1c([S+]([O-])C(C)c2ccccc2)[nH]c2c(Br)ccc(Cl)c2c1=O (centres unmarked) [Compound 26, 3-acetyl-8-bromo-5-chloro-2-((1-phenylethyl)sulfinyl)quinolin-4(1H)-one]
5 | > 2 µM | > 2 µM | > 2 µM | > 2 µM | > 10 µM | > 2 µM | > 10 µM | > 2 µM | > 2 µM | > 2 µM | > 2 µM | CC(=O)c1c(SCc2cccc(C#N)c2)[nH]c2c(Br)ccc(Cl)c2c1=O [Compound 27, 3-(((3-acetyl-8-bromo-5-chloro-4-oxo-1,4-dihydroquinolin-2-yl)thio)methyl)benzonitrile]
6 | > 2 µM | 0.88 µM | > 2 µM | > 2 µM | > 10 µM | > 2 µM | > 10 µM | > 2 µM | 1.41 µM | > 2 µM | 0.66 µM | CC(=O)c1c([S+]([O-])Cc2cccc(C#N)c2)[nH]c2c(Br)ccc(Cl)c2c1=O (centres unmarked) [Compound 28, 3-(((3-acetyl-8-bromo-5-chloro-4-oxo-1,4-dihydroquinolin-2-yl)sulfinyl)methyl)benzonitrile]
7 | > 2 µM | > 2 µM | > 2 µM | > 2 µM | > 10 µM | > 2 µM | > 10 µM | > 2 µM | > 2 µM | > 2 µM | > 2 µM | CC(=O)c1c(SCc2ccc(F)c(Cl)c2)[nH]c2c(Br)ccc(Cl)c2c1=O [Compound 30, 3-acetyl-8-bromo-5-chloro-2-((3-chloro-4-fluorobenzyl)thio)quinolin-4(1H)-one]
8 | > 2 µM | > 2 µM | > 2 µM | > 2 µM | > 10 µM | > 2 µM | > 10 µM | > 2 µM | > 2 µM | > 2 µM | > 2 µM | CC(=O)c1c(SCc2ccc([N+](=O)[O-])cc2)[nH]c2c(Br)ccc(Cl)c2c1=O [Compound 32, 3-acetyl-8-bromo-5-chloro-2-((4-nitrobenzyl)thio)quinolin-4(1H)-one]
9 | > 2 µM | > 2 µM | > 2 µM | > 2 µM | > 10 µM | > 2 µM | > 10 µM | > 2 µM | > 2 µM | > 2 µM | > 2 µM | CSc1c(C(C)=O)c(=O)c2c(Cl)ccc(Br)c2n1S(C)(=O)=O [Compound 35, 3-acetyl-8-bromo-5-chloro-1-(methylsulfonyl)-2-(methylthio)quinolin-4(1H)-one]
10 | > 2 µM | > 2 µM | > 2 µM | > 2 µM | > 10 µM | > 2 µM | > 10 µM | > 2 µM | > 2 µM | > 2 µM | > 2 µM | CC(=O)c1c([S+](C)[O-])n(S(=O)(=O)C(F)(F)F)c2c(Br)ccc(Cl)c2c1=O (centres unmarked) [Compound 36, 3-acetyl-8-bromo-5-chloro-2-(methylsulfinyl)-1-((trifluoromethyl)sulfonyl)quinolin-4(1H)-one]
